Data: paper PMC11324870, “Branched-chain amino acid transaminase 1 confers EGFR-TKI resistance through epigenetic glycolytic activation” (Signal Transduction and Targeted Therapy, 2024)

Target: T1, BCAT1 (branched-chain amino acid transaminase 1) (Homo sapiens, UniProt P54687)
T1 construct: recombinant human BCAT1 Protein (Sino Biological, #ME16FE2265)
T1 sequence (P54687 1-386): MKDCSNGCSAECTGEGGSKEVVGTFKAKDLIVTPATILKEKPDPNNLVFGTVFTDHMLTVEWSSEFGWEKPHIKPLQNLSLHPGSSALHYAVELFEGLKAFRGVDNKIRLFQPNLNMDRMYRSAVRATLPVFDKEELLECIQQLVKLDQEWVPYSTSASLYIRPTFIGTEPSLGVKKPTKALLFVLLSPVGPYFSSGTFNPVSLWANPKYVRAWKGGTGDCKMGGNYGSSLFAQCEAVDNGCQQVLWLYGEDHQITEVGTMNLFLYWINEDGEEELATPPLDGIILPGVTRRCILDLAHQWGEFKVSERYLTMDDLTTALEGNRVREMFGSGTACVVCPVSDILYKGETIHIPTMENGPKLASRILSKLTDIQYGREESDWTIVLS
Assay: coupled fluorescence (resazurin) enzyme activity assay with purified recombinant BCAT1; also CETSA in […] cells
Format: biochemical

Question: `NCC1(CC(=O)O)CC2CCC1C2` (racemic) [WQQ-345] was tested. Which IC50 did it give?
Answer: 10.8 mM
